Results reported in ChEMBL document CHEMBL1149208, “Synthesis of 1alpha,25-dihydroxyvitamin D3-26,23-lactams (DLAMs), a novel series of 1 alpha,25-dihydroxyvitamin D3 antagonist” (Bioorg Med Chem Lett, 2004).
pIC50: −log10 of the molar value.

Key:
Vitamin D3 receptor = molecular target: T1, Vitamin D3 receptor (Gallus gallus, UniProt O42392); assay: In vitro relative binding affinity for chick intestinal vitamin D3 receptor compared to [3H]1
T1 sequence (O42392 whole entry): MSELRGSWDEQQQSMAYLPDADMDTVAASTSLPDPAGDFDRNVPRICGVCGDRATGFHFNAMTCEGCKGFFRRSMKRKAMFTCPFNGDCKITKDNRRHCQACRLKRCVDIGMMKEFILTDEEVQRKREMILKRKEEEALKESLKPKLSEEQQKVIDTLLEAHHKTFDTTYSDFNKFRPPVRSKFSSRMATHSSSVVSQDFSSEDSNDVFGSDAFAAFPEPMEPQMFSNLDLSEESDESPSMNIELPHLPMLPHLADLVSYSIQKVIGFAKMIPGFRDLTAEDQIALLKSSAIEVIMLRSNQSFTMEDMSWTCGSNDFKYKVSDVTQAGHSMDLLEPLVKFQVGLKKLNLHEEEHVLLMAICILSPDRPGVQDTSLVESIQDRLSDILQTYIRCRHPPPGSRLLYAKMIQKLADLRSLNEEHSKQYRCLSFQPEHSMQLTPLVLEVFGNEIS

HL-60 = assay: Inhibitory activity on HL-60 cell differentiation induced by 10e-8 M of compound 1 (1,25-D3); design: scale not given: the % may be the effect or the level left

SMILES | pIC50 (Vitamin D3 receptor) | Activity (HL-60) [%]
C=C1/C(=C/C=C2/CCC[C@@]3(C)C2CCC3[C@H](C)C[C@@H]2C[C@@](C)(O)C(=O)N2Cc2ccccc2)C[C@@H](O)C[C@@H]1O (stereo partly drawn) | 7.52 | –
C=C1/C(=C/C=C2/CCC[C@@]3(C)C2CCC3[C@H](C)C[C@H]2C[C@](C)(O)C(=O)N2Cc2ccccc2)C[C@@H](O)C[C@@H]1O (stereo partly drawn) | 8.72 | 47
C=C1/C(=C/C=C2/CCC[C@@]3(C)C2CCC3[C@H](C)C[C@H]2C[C@](C)(O)C(=O)N2C)C[C@@H](O)C[C@@H]1O (stereo partly drawn) | 7.99 | 12
C=C1/C(=C/C=C2/CCC[C@]3(C)[C@@H]([C@H](C)C[C@@H]4C[C@@](C)(O)C(=O)N4C)CC[C@@H]23)C[C@@H](O)C[C@@H]1O | 7.30 | –

Continued, in another order:

pIC50 (Vitamin D3 receptor) | SMILES | Activity (HL-60) [%]
< 7.00 | C=C1/C(=C/C=C2/CCC[C@]3(C)[C@@H]([C@H](C)C[C@@H]4C[C@](C)(O)C(=O)N4C)CC[C@@H]23)C[C@@H](O)C[C@@H]1O (stereo in doubt; form 1) | –
< 7.00 | C=C1/C(=C/C=C2/CCC[C@]3(C)[C@@H]([C@H](C)C[C@@H]4C[C@](C)(O)C(=O)N4C)CC[C@@H]23)C[C@@H](O)C[C@@H]1O (stereo in doubt; form 2) | –
